The values below are quoted from earlier work in article PMC7745548 (International Journal of Tryptophan Research : IJTR, 2020).

In series [1] the test system is CYP2C9. The following applies: O-demethylation major pathway.
In series [2] the test system is CYP1A2.
In series [3] the test system is human microsomal P450 1A2 (CYP1A2). The following applies: different crystal structure (PDB code: 1FAG) ref 26, 28.

As to `COc1ccc2c(c1)c(CC(=O)O)c(C)n2C(=O)c1ccc(Cl)cc1` [Indomethacin], the “Metabolism by CYP2C9” value in series [1] was “mainly metabolised by CYP2C9”. The “Metabolism by CYP1A2” value in series [2] is reported as “only slightly metabolised by CYP1A2”. For the compound `COc1ccc2[nH]cc(CCNC(C)=O)c2c1` [MLT, N-acetyl-5-methoxytryptamine], the “Distance between SOM and Fe(II) ion of heme” value in series [3] is 4.15 Å.
